Where “and” joins values, the source holds several entries; their conditions need not be identical. Equal entries are not always repeated. Where two headings read alike, the source gives them in different places.
Experiments:
[1] = tested on: HIV IN mutant Y143R; conditions: values from two independent experiments
[2] = tested on: HIV IN mutant Y143R; conditions: values from two independent experiments; cited from earlier work
[3] = tested on: raltegravir-resistant HIV-1 strain 1556-1 (Y143C); conditions: virus 1556-1, Y143C; NL4-3 based, MT-4 cells; cited from earlier work
[4] = target: T1, recombinant HIV-1 IN (ST) (Human immunodeficiency virus type 1 group M subtype B, UniProt P04585); test: In vitro integrase catalytic gel assay, strand transfer; assay type: biochemical
[5] = tested on: CEM-SS cells; conditions: single concentration 10 μM; cited from earlier work
[6] = target: T2, recombinant HIV-1 IN (3′P) (Human immunodeficiency virus type 1 group M subtype B, UniProt P04585); conditions: read-out: IN IC50 3′P, gel assay; cited from earlier work
[7] = tested on: HIV-1IIIB; conditions: HIV-1IIIB in CEM-SS cells, cited from earlier work
[8] = target: T2, recombinant HIV-1 IN (3′P); test: In vitro integrase catalytic gel assay, 3′ processing; assay type: biochemical
[9] = tested on: HIV-1IIIB; test: HIV cytoprotection; conditions: for TI (therapeutic index, CC50/EC50): HIV-1IIIB in CEM-SS cells; for activity against HIV-1 (in words): 10 μM, CEM-SS cells
[10] = Compound cytotoxicity / cell viability in CEM-SS cells; assay type: cell-based; conditions: human
[11] = tested on: MT-4 cells; assay type: cell-based; conditions: human
[12] = target: T1, recombinant HIV-1 IN (ST); conditions: cited from earlier work
[13] = tested on: HIV-1NL4-3 strain Y181C; test: Antiviral assay with NNRTI-resistant strain in MAGI R5 cells; assay type: cell-based; conditions: HIV-1NL4-3 Y181C (NNRTI resistance)
[14] = tested on: HIV-1NL4-3 strain K103N; test: as above; assay type: cell-based; conditions: HIV-1NL4-3 K103N (NNRTI resistance)

In the case of Cc1nnc(C(=O)NC(C)(C)c2nc(C(=O)NCc3ccc(F)cc3)c(O)c(=O)n2C)o1 [Compound 1, raltegravir, reference compound], the “Fold-resistance IC50(mutant)/IC50(WT)” value [1] is reported as 28.
For CC(C)c1c(Cc2ccccc2)n(COCc2ccc(F)cc2)c(=O)n(O)c1=O [Compound 4, 6-Benzyl-1-((4-fluorobenzyloxy)methyl)-3-hydroxy-5-isopropylpyrimidine-2,4(1H,3H)-dione], the “Fold-resistance IC50(mutant)/IC50(WT)” value [2] is given as 7 and 4, the “Fold-resistance EC50(mutant)/EC50(WT)” value [3] is given as 5.9 and the “fold improvement in IN inhibition over the unsubstituted compound 11” value ([4]; ST, 4 vs 11) is given as 6 fold. For the same compound, the “Cell Viability (%)” value [5] was 100%, the IC50 [6] was greater than 111 µM and the “TI (therapeutic index, CC50/EC50)” value [7] was greater than 833. For the same compound, the EC50 ([7]; read-out: EC50 (concentration inhibiting virus replication by 50%), dose response) was 0.024 µM and the “CPE Reduction (%)” value ([7]; single concentration 10 μM) was 100%.
Compound CC(C)c1c(Cc2ccccc2)n(COCc2ccc(F)cc2)c(=O)[nH]c1=O [Compound 9, 6-Benzyl-1-((4-fluorobenzyloxy)methyl)-5-isopropylpyrimidine-2,4(1H,3H)-dione] has an IC50 [8] greater than 111 µM.
Compound CC(C)c1c(Cc2ccccc2)n(COCc2ccc(F)cc2)c(=O)n(C)c1=O [Compound 10, 6-Benzyl-1-((4-fluorobenzyloxy)methyl)-5-isopropyl-3-methylpyrimidine-2,4(1H,3H)-dione] has an IC50 [8] greater than 111 µM.
For CC(C)c1c(Cc2ccccc2)n(COCc2ccccc2)c(=O)n(O)c1=O [Compound 11, 6-Benzyl-1-(benzyloxymethyl)-3-hydroxy-5-isopropylpyrimidine-2,4(1H,3H)-dione], the IC50 [6] is listed as greater than 111 µM.
With CC(C)c1c(Cc2ccccc2)n(COCc2ccc(F)cc2F)c(=O)n(O)c1=O [Compound 12, 6-Benzyl-1-((2,4-difluorobenzyloxy)methyl)-3-hydroxy-5-isopropylpyrimidine-2,4(1H,3H)-dione] the “TI (therapeutic index, CC50/EC50)” value [9] was greater than 47, the viability at 6 days, 10 µM [10] was 100% and the IC50 [8] was greater than 111 µM.
With CC(C)c1c(Cc2ccccc2)n(COCc2cccc(Cl)c2F)c(=O)n(O)c1=O [Compound 13, 6-Benzyl-1-((3-chloro-2-fluorobenzyloxy)methyl)-3-hydroxy-5-isopropylpyrimidine-2,4(1H,3H)-dione] the “TC50 (toxicity observed)” value [11] was “c Toxicity observed (TC50 = 2.0 μM)”, the “TI (therapeutic index, CC50/EC50)” value [9] was greater than 105 and the viability at 6 days, 10 µM [10] was 100%. For the same compound, the IC50 [8] was greater than 111 µM and the “Fold-resistance IC50(mutant)/IC50(WT)” value [1] was 7.
For COn1c(=O)c(C(C)C)c(Cc2ccccc2)n(COCc2ccc(F)cc2)c1=O [Compound 14, 6-Benzyl-1-((4-fluorobenzyloxy)methyl)-5-isopropyl-3-methoxypyrimidine-2,4(1H,3H)-dione], the IC50 [8] was greater than 111 µM.
In the case of CC(C)c1c(Cc2ccccc2)n(COCc2ccccc2)c(=O)n(N)c1=O [Compound 15, 3-Amino-6-benzyl-1-(benzyloxymethyl)-5-isopropylpyrimidine-2,4(1H,3H)-dione], the “inhibitory activity against IN (in words)” value (from here on “inhibitory activity”) [12] is listed as “completely devoid of inhibitory activity” and the IC50 [6] is listed as greater than 111 µM.
For CC(C)c1c(Cc2ccccc2)n(COCCc2ccc(F)cc2)c(=O)n(O)c1=O [Compound 28, 6-Benzyl-1-((4-fluorophenethoxy)methyl)-3-hydroxy-5-isopropylpyrimidine-2,4(1H,3H)-dione], the IC50 [8] was greater than 111 µM.
CC(C)c1c(Cc2ccccc2)n(COCCCc2ccc(F)cc2)c(=O)n(O)c1=O [Compound 29, 6-Benzyl-1-((3-(4-fluorophenyl)propoxy)methyl)-3-hydroxy-5-isopropylpyrimidine-2,4(1H,3H)-dione] gave an IC50 [8] greater than 111 µM.
Work on CC(C)c1c(Cc2ccccc2)n(COCCCCc2ccc(F)cc2)c(=O)n(O)c1=O [Compound 30, 6-Benzyl-1-((4-(4-fluorophenyl)butoxy)methyl)-3-hydroxy-5-isopropylpyrimidine-2,4(1H,3H)-dione] yielded an IC50 [8] greater than 111 µM.
Compound CC(C)c1c(Cc2ccccc2)n(Cc2ccc(F)cc2)c(=O)n(O)c1=O [Compound 32, 6-Benzyl-1-(4-fluorobenzyl)-3-hydroxy-5-isopropylpyrimidine-2,4(1H,3H)-dione] has an IC50 [8] greater than 111 µM.
In the case of CC(C)c1c(Cc2ccccc2)n(CCc2ccc(F)cc2)c(=O)n(O)c1=O [Compound 42, 6-Benzyl-1-(4-fluorophenethyl)-3-hydroxy-5-isopropylpyrimidine-2,4(1H,3H)-dione], the IC50 [8] is reported as greater than 111 µM.
For CC(C)c1c(Cc2ccccc2)n(CCCc2ccc(F)cc2)c(=O)n(O)c1=O [Compound 43, 6-Benzyl-1-(3-(4-fluorophenyl)propyl)-3-hydroxy-5-isopropylpyrimidine-2,4(1H,3H)-dione], the “activity against HIV-1 (in words)” value [9] was “only marginal activity” and the IC50 [8] was greater than 111 µM.
In the case of CC(C)c1c(Cc2ccccc2)n(CCCCc2ccc(F)cc2)c(=O)n(O)c1=O [Compound 44, 6-Benzyl-1-(4-(4-fluorophenyl)butyl)-3-hydroxy-5-isopropylpyrimidine-2,4(1H,3H)-dione], the “activity against HIV-1 (in words)” value [9] is reported as “only marginal activity” and the IC50 [8] is reported as greater than 111 µM.
CCc1c(Cc2ccccc2)c(=O)[nH]c(=O)n1COCc1ccccc1 [Compound 49, 5-Benzyl-1-(benzyloxymethyl)-6-ethylpyrimidine-2,4(1H,3H)-dione] showed a viability at 6 days, 10 µM [10] of 100%.
In the case of CC(C)c1c(Cc2ccc(F)cc2)n(COCc2ccccc2)c(=O)n(O)c1=O [Compound 51, 1-(Benzyloxymethyl)-6-(4-fluorobenzyl)-3-hydroxy-5-isopropylpyrimidine-2,4(1H,3H)-dione], the “TI (therapeutic index, CC50/EC50)” value [9] is reported as greater than 18, the viability at 6 days, 10 µM [10] is reported as 100% and the IC50 [8] is reported as greater than 111 µM.
CC(C)c1c(Cc2ccc(F)cc2)n(COCc2ccc(F)cc2)c(=O)n(O)c1=O [Compound 52, 6-(4-Fluorobenzyl)-1-((4-fluorobenzyloxy)methyl)-3-hydroxy-5-isopropylpyrimidine-2,4(1H,3H)-dione] showed an IC50 [8] greater than 111 µM.
Work on CCc1c(Cc2ccccc2)n(COCc2ccccc2)c(=O)n(O)c1=O [Compound 53, 6-Benzyl-1-(benzyloxymethyl)-5-ethyl-3-hydroxypyrimidine-2,4(1H,3H)-dione] yielded an IC50 [8] greater than 111 µM.
In the case of Cc1cn(COCc2ccccc2)c(=O)n(O)c1=O [Compound 54, 1-(Benzyloxymethyl)-3-hydroxy-5-methylpyrimidine-2,4(1H,3H)-dione], the IC50 [8] is reported as greater than 111 µM.
With CCc1c(Cc2ccccc2)c(=O)n(O)c(=O)n1COCc1ccccc1 [Compound 55, 5-Benzyl-1-(benzyloxymethyl)-6-ethyl-3-hydroxypyrimidine-2,4(1H,3H)-dione] the IC50 [8] was greater than 111 µM and the “fold increase of IC50 value on swapping C5 and C6 substituents” value ([4]; ST, 55 vs 53) was 4 fold.
Compound CCc1c(Cc2ccccc2)c(=O)n(O)c(=O)n1COCc1ccc(F)cc1 [Compound 56, 5-Benzyl-6-ethyl-1-((4-fluorobenzyloxy)methyl)-3-hydroxypyrimidine-2,4(1H,3H)-dione] has an IC50 [8] greater than 111 µM.
For CC(C)c1c(Cc2ccc(F)cc2)n(Cc2ccccc2)c(=O)n(O)c1=O [Compound 64, 1-Benzyl-6-(4-fluorobenzyl)-3-hydroxy-5-isopropylpyrimidine-2,4(1H,3H)-dione], the IC50 [8] was greater than 111 µM.
Work on CC(C)c1c(Cc2ccc(F)cc2)n(Cc2ccc(F)cc2)c(=O)n(O)c1=O [Compound 65, 1,6-Bis(4-fluorobenzyl)-3-hydroxy-5-isopropylpyrimidine-2,4(1H,3H)-dione] yielded an IC50 [8] greater than 111 µM.
CC(C)c1c(Cc2ccccc2)n(Cc2ccccc2)c(=O)n(O)c1=O [Compound 66, 1,6-Bibenzyl-3-hydroxy-5-isopropylpyrimidine-2,4(1H,3H)-dione] gave an IC50 [8] greater than 111 µM.
With CCc1c(Cc2ccccc2)n(Cc2ccccc2)c(=O)n(O)c1=O [Compound 67, 1,6-Bibenzyl-5-ethyl-3-hydroxypyrimidine-2,4(1H,3H)-dione] the IC50 [8] was greater than 111 µM and the “inhibitory activity” value [4] was “complete loss of inhibition”.
Compound CCc1c(Cc2ccccc2)n(Cc2ccc(F)cc2)c(=O)n(O)c1=O [Compound 68, 6-Benzyl-5-ethyl-1-(4-fluorobenzyl)-3-hydroxypyrimidine-2,4(1H,3H)-dione] has an IC50 [8] greater than 111 µM.
For Cc1cn(Cc2ccccc2)c(=O)n(O)c1=O [Compound 69, 1-Benzyl-3-hydroxy-5-methylpyrimidine-2,4(1H,3H)-dione], the IC50 [8] was greater than 111 µM.
In the case of Cc1cn(Cc2ccc(F)cc2)c(=O)n(O)c1=O [Compound 70, 1-(4-Fluorobenzyl)-3-hydroxy-5-methylpyrimidine-2,4(1H,3H)-dione], the IC50 [8] is reported as greater than 111 µM.
With O=c1c2ccccc2n(Cc2ccccc2)c(=O)n1O [Compound 75] the IC50 [8] was greater than 111 µM, the IC50 [4] was greater than 111 µM and the “inhibitory activity” value [4] was “completely inactive”.
For O=c1c2ccccc2n(Cc2ccc(F)cc2)c(=O)n1O [Compound 76], the IC50 [8] was greater than 111 µM, the IC50 [4] was greater than 111 µM and the “inhibitory activity” value [4] was “completely inactive”.
CC(C)c1c(Cc2ccccc2)n(COCc2ccccc2)c(=O)[nH]c1=O [TNK-651] showed a fold-resistance [13] of 72 and a fold-resistance [14] of 22.
